Like-named read-outs stand apart in the source and are kept apart here. Starred links: 1 amine or outer side, 2 acyl side, 3 side chain; linkers in the order of their positions; H or OH if unused. Non-standard residues stand in square brackets, D forms with d. Residues, ends and D or L forms follow the SMILES beside them. ξ: configuration not given here. Glutaryl = O=C(CCCC(=O)[*:2])[*:1]; ξH = NC(Cc1c[nH]cn1)C(=O)O
Key:
human virus hRSV = assay: Antiviral activity against mouse-adapted RS virus (body weight; viral titer in lungs titrated in Hep-2 cells); assay type: in vivo, mice; conditions: for hRSV in the lungs of mice, Day 5, lg / hRSV in the lungs of mice, Day 7, lg: 10% lung suspension titrated in Hep-2 cells (TCID); for hRSV in the lungs of mice, Day 5, lg / Body weight of the mice on day 5 after infection with hRSV (M ± SD) / hRSV in the lungs of mice, Day 7, lg / Body weight of the mice on day 7 after infection with hRSV (M ± SD): compounds 30 mg/kg, Ribavirin 40 mg/kg; for Body weight of the mice on day 5 after infection with hRSV (M ± SD) / Body weight of the mice on day 7 after infection with hRSV (M ± SD): orally once daily for 5 days, n = 6; for log reduction at 30 mg/kg: human respiratory syncytial virus, HEp-2, po
Protocol: Antiviral effectiveness of the chemical compounds against RSV in an experimental murine model in vivo was determined for human virus hRSV that was previously adapted to the growth in mouse lungs. The animals were infected with the virus at a dose of 0.5 log TCID50 intranasally under brief ether anesthesia in a volume of 0.05 ml/mouse. The studied compounds were administered orally once daily for 5 days according to the treatment regimen at a dose of 30 mg/kg. The first administration was made 24 hours after infection. Normal saline solution was administered to mice as placebo. Intact animals served as a negative control and were hold in a separate room under the same conditions as the experimental animals. Each experimental group comprised 12 animals.
The antiviral activity of the studied compounds was determined by the efficiency in the prevention of weight loss and by suppression of the reproduction of hRSV in the mouse lungs by measuring a viral titer in the experimental groups relative to the control on days 5 and 7 after infection.
In addition, the therapeutic action of the compounds of general formula I was determined by their ability to suppress the reproduction of hRSV in the mouse lungs on days 5 and 7 after infection. The viral titer was determined by the titration of a 10% lung suspension in Hep-2 cell culture. The result was registered 2 days after the incubation at 37° C. by TCID.

[1] = test system: human respiratory syncytial virus (strain A2); assay: Antiviral activity against RS virus in a murine model of suppressed immune system (lung edema); assay type: in vivo; conditions: Balb/c mice, cyclophosphan-suppressed, RS-virus pneumonia; 30 mg/kg once daily for 5 days; M ± SD, n = 5; scores from possible 4
Protocol: Antiviral activity of the chemical compounds against human respiratory syncytial virus (strain A2, an infectious titer of 5×10^6 TCID50/mL) was assessed in a Balb/c murine model of viral pneumonia. The virus was inoculated to animals intranasally in a volume of 50 μL under brief ether anesthesia. The immune response in animals to RS virus was suppressed by intraperitoneal administration of cyclophosphan at a dose of 100 mg/kg 5 days before infection. The studied compounds were administered according to the treatment regimen once daily at a dose of 30 mg/kg for 5 days, starting 24 hours after infection. The activity of the compounds was determined by a reduction in edema of the lung infected with respiratory syncytial virus, compared to the control, on day 5 after infection.

[2] = test system: Coxsackie A2 virus (strain HCXV A2); assay: Antiviral activity against Coxsackie virus in vivo (mortality and life expectancy of infected mice); conditions: for inhibition in vivo at 30 mg/kg / mortality at 30 mg/kg: Mus musculus, po; for inhibition in vivo at 30 mg/kg: 168 h, read-out: Protective index (%); for mortality at 30 mg/kg: 360 h, read-out: Total mortality, %; for Average life expectancy (days), Compared with control: difference vs virus control; for Average life expectancy (days), Relative: mice infected with 10LD50 HCXV A2
Protocol: In the study a trypsin-dependent strain HCXV A2 was used, previously adapted and causing death in mice from Coxsackie virus infection.
The experiment was carried out in white mice weighing 6 to 7 g. The animals were infected intramuscularly with a dose of 0.1 mL/mouse. The used infectious dose causing mortality in mice was 10LD50.
The ability of compounds to provide a therapeutic effect was determined by the mortality rate of HCXV A2 virus-infected mice in the experimental group relative to the group of untreated animals.
The studied compounds and placebo were administered orally according to the treatment regimen. Normal saline solution was administered to mice as placebo. Intact animals served as a negative control and were hold in a separate room under the same conditions as the experimental animals.
For the experiment, groups were formed with 14-15 animals each. Compounds were administered at a dose of 30 mg/kg of body weight. The studied compounds were administered orally once daily for 7 days (first administration was made 24 hours after infection). The animals were monitored for 15 days during which the animals were weighed and the mortality rate was registered every day.

[3] = 120 h, read-out: Suppression of the reproduction of hRSV in the lungs of mice, Day 5, Δlg
[4] = 168 h, read-out: Suppression of the reproduction of hRSV in the lungs of mice, Day 7, Δlg
[5] = 30 mg/kg orally once daily for 7 days, vs virus control
[6] = 30 mg/kg orally once daily for 7 days

Structure (SMILES)	Body weight of the mice on day 5 after infection with hRSV (M ± SD) (human virus hRSV)	Body weight of the mice on day 7 after infection with hRSV (M ± SD) (human virus hRSV)	Degree of lung edema on day 5 after infection, score [1] [score]	inhibition in vivo at 30 mg/kg [2, 5] [%]	mortality at 30 mg/kg [2] [%]	Average life expectancy (days), Compared with control [2, 6]	Average life expectancy (days), Relative [2, 6] [days]	also measured
O=C(O)CCCC(=O)NCCC1CCNC1 (stereo not drawn) [Compound 1]	16.43 ± 0.14	17.98 ± 0.26	1.3 ± 0.27	–	–	–	–	hRSV in the lungs of mice, Day 5, lg (human virus hRSV): 2.88 ± 0.59 lg; hRSV in the lungs of mice, Day 7, lg (human virus hRSV): 1.46 ± 0.17 lg; log reduction at 30 mg/kg (human virus hRSV; [3]): 1.73 ± 0.59; log reduction at 30 mg/kg (human virus hRSV; [4]): 2.34 ± 0.17
O=C(O)CCCC(=O)NCCC1=NCCN1 [Compound 3]	16.65 ± 0.28	17.32 ± 0.25	1.6 ± 0.89	–	–	–	–	hRSV in the lungs of mice, Day 5, lg (human virus hRSV): 3.04 ± 0.42 lg; hRSV in the lungs of mice, Day 7, lg (human virus hRSV): 1.46 ± 0.17 lg; log reduction at 30 mg/kg (human virus hRSV; [3]): 1.56 ± 0.42; log reduction at 30 mg/kg (human virus hRSV; [4]): 2.18 ± 0.28
O=C(O)CCCC(=O)NCCC1CNC=N1 (stereo not drawn) [Compound 4]	16.77 ± 0.20	17.08 ± 0.32	1.95 ± 0.31	–	–	–	–	hRSV in the lungs of mice, Day 5, lg (human virus hRSV): 2.58 ± 0.51 lg; hRSV in the lungs of mice, Day 7, lg (human virus hRSV): 1.38 ± 0.24 lg; log reduction at 30 mg/kg (human virus hRSV; [3]): 2.02 ± 0.51; log reduction at 30 mg/kg (human virus hRSV; [4]): 2.58 ± 0.53
O=C(O)CCCC(=O)NCCC1CNCCN1 (stereo not drawn) [Compound 8]	15.18 ± 0.18	17.13 ± 0.27	–	–	–	–	–	–
O=C(O)CCCC(=O)NCCC1CNCCO1 (stereo not drawn) [Compound 9]	15.75 ± 0.33	16.18 ± 0.29	1.00 ± 0.17	–	–	–	–	–
O=C(O)CCCC(=O)NCCC1COCCN1 (stereo not drawn) [Compound 10]	16.18 ± 0.29	16.53 ± 0.20	–	–	–	–	–	–
O=C(O)CCCC(=O)NCCc1ncccn1 [Compound 12]	–	–	–	45	40	+14.2 days	24.9	–
O=C(O)CCCC(=O)NCCc1cccnn1 [Compound 13]	–	–	–	36	46.7	+8.3 days	19.0	–
O=C(O)CCCC(=O)NCCc1ccc[nH]1 [Compound 14]	–	–	–	–	50	+10.4 days	21.4	inhibition in vivo at 30 mg/kg [2]: 36%
O=C(O)CCCC(=O)NCCc1cnon1 [Compound 29]	–	–	–	50	35.7	+13.7 days	26.7	–
CC(CCC(=O)O)C(=O)NCCc1c[nH]cn1 (stereo not drawn) [Compound 30]	–	–	–	18	60	+2.4 days	13.1	–
O=C(O)CCCC(=O)NCCCc1ccco1 [Compound 32]	–	–	–	33	42.9	+10.0 days	22.2	–
O=C(O)CCCC(=O)NCCCc1ccccn1 [Compound 35]	–	–	1.48 ± 0.17	27	53.3	+5.9 days	16.6	–
O=C(O)CCCC(=O)NCCc1ccc(Cl)nc1 [Compound 36]	–	–	–	27	53.3	+6.0 days	16.7	–
O=C(O)CCCC(=O)OCCc1cnc[nH]1 [Compound 71]	–	–	–	44	35.7	+16.4 days	28.6	–
CC(C)(CCC(=O)NC(Cc1c[nH]cn1)C(=O)O)C(=O)O (stereo not drawn) [Compound 75]	–	–	–	50	35.7	+14.3 days	27.3	–
COC(=O)C(NC(=O)C(Cc1cnc[nH]1)NC(=O)CCCC(=O)O)C(C)C (stereo not drawn) [Compound 89] (Glutaryl-His-Val-OMe; configuration not given here)	–	–	0.75 ± 0.17	27	53.3	+7.0 days	17.7	–
CC(C)C(NC(=O)C(Cc1cnc[nH]1)NC(=O)CCCC(=O)O)C(N)=O (stereo not drawn) [Compound 90] (Glutaryl-His-Val-NH2; configuration not given here)	–	–	–	50	35.7	+15.1 days	25.9	–
COC(=O)C(C)NC(=O)C(Cc1cnc[nH]1)NC(=O)CCCC(=O)O (stereo not drawn) [Compound 91]	–	–	0.40 ± 0.11	–	–	–	–	–
NC(=O)C(CO)NC(=O)C(Cc1cnc[nH]1)NC(=O)CCCC(=O)O (stereo not drawn) [Compound 96] (Glutaryl-His-Ser-NH2; configuration not given here)	–	–	0.35 ± 0.11	–	–	–	–	–
CN(CCc1cnc[nH]1)C(=O)CCCC(=O)O [Compound 117]	16.07 ± 0.12	16.48 ± 0.28	–	–	–	–	–	hRSV in the lungs of mice, Day 5, lg (human virus hRSV): 3.00 ± 0.41 lg; hRSV in the lungs of mice, Day 7, lg (human virus hRSV): 1.46 ± 0.24 lg; log reduction at 30 mg/kg (human virus hRSV; [3]): 1.6 ± 0.41; log reduction at 30 mg/kg (human virus hRSV; [4]): 2.22 ± 0.34
O=C(O)CCCC(=O)NCCc1cc[nH]c1 [Compound 120]	16.12 ± 0.27	17.22 ± 0.20	1.05 ± 0.14	–	–	–	–	hRSV in the lungs of mice, Day 5, lg (human virus hRSV): 3.04 ± 0.47 lg; hRSV in the lungs of mice, Day 7, lg (human virus hRSV): 1.50 ± 0.25 lg; log reduction at 30 mg/kg (human virus hRSV; [3]): 1.56 ± 0.47; log reduction at 30 mg/kg (human virus hRSV; [4]): 2.05 ± 0.25
O=C(O)CCCC(=O)NCCc1cncs1 [Compound 122]	16.93 ± 0.32	16.37 ± 0.21	–	–	–	–	–	hRSV in the lungs of mice, Day 5, lg (human virus hRSV): 3.04 ± 0.44 lg; hRSV in the lungs of mice, Day 7, lg (human virus hRSV): 1.75 ± 0.41 lg; log reduction at 30 mg/kg (human virus hRSV; [3]): 1.56 ± 0.44; log reduction at 30 mg/kg (human virus hRSV; [4]): 1.88 ± 0.47
O=C(O)CCCC(=O)NCCc1cn2ccccc2n1 [Compound 139]	–	–	1.75 ± 0.77	–	–	–	–	–
COC(=O)C(NC(=O)C(Cc1cnc[nH]1)NC(=O)CCCC(=O)O)C(C)O (stereo not drawn) [Compound 148] (Glutaryl-His-Thr-OMe; configuration not given here)	–	–	2.00 ± 0.31	–	–	–	–	–
NC(=O)CNC(=O)C(Cc1c[nH]cn1)NC(=O)CCCC(=O)O (stereo not drawn) [Compound 184] (Glutaryl-[ξH]-Gly-NH2)	–	–	1.00 ± 0.19	–	–	–	–	–

Reference: patent publication US20170183318A1, “AMIDE COMPOUNDS, METHODS FOR PREPARATION, AND USE THEREOF AS AGENTS FOR THE TREATMENT AND PREVENTION OF DISEASES CAUSED BY RNA- AND/OR DNA-CONTAINING VIRUSES, AND CONCOMITANT DISEASES” (OBSCHESTVO S OGRANICHENNOI OTVETSTVENNOSTIYU …, priority 2014, published 2017)
